Patent US8334299B2, “β-carboline for the treatment of neurodegenerative diseases” (Ellneuroxx, Ltd., priority 2007, dated 2012)

Legend:
[1] = system: dopamine concentration in the striatum; assay: Chronic MPP+ infusion model of Parkinson's disease, dopamine concentration in the striatum; assay type: in vivo, rat; parameters: key to Anti-Parkinson test in comparison to 9-methyl-β-carboline: +: slightly better than 9-methyl-β-carboline; ±: the same as 9-methyl-β-carboline; −: slightly worse than 9-methyl-β-carboline; details: tested as described in example 8
Source text: In the diagram the dopamine (DA) levels of the left and right striatum of the single rats are indicated.
To investigate Parkinson's disease acute in vivo models are used for years although chronic models would be a better model for the disease. Another disadvantage of the acute models is that ca. 40% of the animals die from the application of the neurotoxin. Therefore, we have chosen a chronic model in which comparably very low doses of neurotoxin 1-methyl-4-phenylpyridinium (MPP^+) were infused for 28 days into the left lateral ventricle of the rat brain. The substance was continuously applied through osmotic minipumps. Thereby, casualties were completely avoided. After four weeks, either solvent or equimolar amounts of the sample substance, namely neuroprotective betacarboline, resp. 9-alkyl-betacarboline was infused for two weeks via the same catheter. In a preliminary study for dose-finding the MPP^+ dose which leads to a reduction by 40% of the dopamine concentration in the striatum was determined. The dopamine concentration in the striatum is a characteristic marker for Parkinson's disease in which a degeneration of dopaminergic neurons occurs.
The compounds A to L were tested as described in example 8. The test results of the compounds A to L are indicated in the following table in comparison to 9-methyl-β-carboline.

[2] = system: dopaminergic neurons in the anterior putamen; details: patients suffering from Parkinson's disease, infusion; cited from earlier work

Molecule	Anti-Parkinson test in comparison to 9-methyl-β-carboline [1]	cellular extensions of dopaminergic neurons in the anterior putamen [2]	clinical symptoms [2]
COCCn1c2ccccc2c2ccncc21 [Compound G]	±		
CCCCCCCCCCCCCCn1c2ccccc2c2ccncc21 [Compound C]	±		
C=CCn1c2ccccc2c2ccncc21 [Compound D]	+		
C#CCn1c2ccccc2c2ccncc21 [Compound H]	+		
COC(=O)CCn1c2ccccc2c2ccncc21 [Compound J]	±		
c1ccc(Cn2c3ccccc3c3ccncc32)cc1 [Compound I]	−		
CCCCCCn1c2ccccc2c2ccncc21 [Compound B]	±		
CC(C)C(C)Cn1c2ccccc2c2ccncc21 (centres unmarked) [Compound K]	±		
CC(C)Cn1c2ccccc2c2ccncc21 [Compound E]	+		
CCn1c2ccccc2c2ccncc21 [Compound F]	±		
CCCn1c2ccccc2c2ccncc21 [Compound A]	+		
CN(C)CCn1c2ccccc2c2ccncc21 [Compound L]	+		
GDNF: the protein glial cell line-derived neurotrophic factor, infused in Parkinson patients (Love et al.) (protein, UniProt P39905 78-211, looked up) Glial cell line-derived …: SPDKQMAVLPRRERNRQAAAANPENSRGKGRRGQRGKNRGCVLTAIHLNVTDLGLGYETKEELIFRYCSGSCDAAETTYDKILKNLSRNRRLVSDKVGQACCRPIAFDDDLSFLDDNLVYHILRKHSAKRCGCI		growth of cellular extensions	improvement in clinical symptoms
